The values that follow come from patent publication US10954549B2, “Detection and classification of an anticoagulant using a clotting assay” (Haemonetics Corporation, priority 2014, dated 2021).

For this assay, the system named is blood from a single human volunteer. The assay can be described thus: Detection time (R time with Factor Xa) in volunteer blood before and after oral anticoagulant. Type of assay: in vivo. The settings on record: 2 hours 30 minutes after 20 mg oral. The method, then:
Blood from a single human volunteer was analyzed using thromboelastography with Factor Xa and ecarin before and after the volunteer was orally administered an anticoagulant.
For these studies, the normal ranges for the particular reagent (i.e., Factor Xa or ecarin) were determined using multiple donors known not to be taking any anticoagulant.
The human volunteer was known not to be taking (i.e., was not being administered) an anticoagulant. In this example, blood was taken from the volunteer before the volunteer was administered any anticoagulant. This is the “before” blood component sample. The volunteer was orally administered 20 mg rivaroxaban, an anti-Factor Xa anticoagulant. Two hours and thirty minutes after oral administration of the rivaroxaban, blood was drawn again from the volunteer. This is the “after” blood component sample.
The “before” and “after” samples were analyzed using thromboelastography in the presence of Factor Xa or in the presence of ecarin. When the R time is determined in the presence of Factor Xa, that time is called the detection time. When the R time is determined in the presence of ecarin, that time is called the classification time.

For the molecule `O=C(NC[C@H]1CN(c2ccc(N3CCOCC3=O)cc2)C(=O)O1)c1ccc(Cl)s1` [rivaroxaban, Rivaroxaban], the “"after" detection time (R time, FXa reagent)” value is given as “approximately 4.4 minutes” and the “"after" detection time relative to the reference range R time of 1.5 minutes” value is reported as 2.93 times.
